Data on 8 molecules can be found in patent publication US10272055B2, “Therapeutic compounds and methods” (Regents of the University of Minnesota, priority 2014, dated 2019).

“Also recorded” adds a separate entry of the source. Like-named read-outs stand apart in the source and are kept apart here.

Series [1] deals with AMPK. The experiment in a line: AMPK phosphorylation Western blot in MDA-MB-231. It is filed as cell-based. To be noted: MDA-MB-231, 1 uM 14,15-EET, 24 hours. The protocol:
FIG. 38 illustrates that 14,15-EET inactivates AMPK in MCF7 line but not in MDA-MB-231 line. Cells were plated in complete media in the presence of serum (10% FBS) and cultured at 37° C. with 5% CO2 and treated with 14,15-EET or EtOH control for 24 hours before harvesting. Total protein was extracted and analyzed by Western-blotting with GAPDH as an internal control.
A general note: A western blot detects proteins with antibodies after separation by electrophoresis.

Series [2] concerns AMPK. In words: AMPK phosphorylation Western blot in MCF7. It counts as cell-based. The settings on record: for AMPK phosphorylation relative to control: MCF7, 6 hours, metformin, buformin, phenformin 1 mM, HBB 20 uM. As for the experimental part: Western blotting analysis was performed in triplicate.
Cells were plated in complete media in the presence of serum (10% FBS) and cultured at 37° C. with 5% CO2 and treated with biguanides for 6 hours before harvesting. Total protein was extracted and analyzed by Western-blotting with GAPDH as an internal control.
Cells were plated in complete media in the presence of serum (10% FBS) and cultured at 37° C. with 5% CO2 and treated with 14,15-EET or EtOH control for 24 hours before harvesting. Total protein was extracted and analyzed by Western-blotting with GAPDH as an internal control.

Series [3] relates to MCF-7 cell line. In words: MTT growth assay, MCF-7 line. It counts as cell-based. To be noted: Homo sapiens, MCF7, 24 h, read-out: IC50, MCF-7 growth. The protocol: The growth of the MCF-7 line was measured by MTT assay at 24 hours. Cells were plated in complete media in the presence of serum (10% FBS) and cultured at 37° C. with 5% CO2 and treated with the biguanide or DMSO vehicle. Growth was measured at 24 hours by MTT assay.
Cells were plated in complete media in the presence of serum (10% FBS) and cultured at 37° C. with 5% CO2 and treated with HBB or DMSO vehicle. Growth was measured at 24 hours by MTT assay.
(In general: Formazan colour is commonly taken as a measure of viable cells.)

Series [4] relates to MCF7 line. The experiment in a line: 14,15-EET protection against biguanide growth inhibition, MTT, MCF7. It is filed as cell-based. The settings on record: MCF-7, exogenous (±)-14,15-EET (1 uM). As for the experimental part:
Cells were plated in complete media in the presence of serum (10% FBS) and cultured at 37° C. with 5% CO2 and treated with biguanides for 24 hours in the presence or absence of 1 uM 14,15-EET. Growth was then measured at 24 hour by MTT assay.

Series [5] has as its system STAT3. In words: STAT3 phosphorylation Western blot in MCF7. It counts as cell-based. The protocol: Western blotting analysis was performed (C=control, M=metform and H=HBB).
Total protein was extracted and analyzed by Western-blotting with GAPDH as an internal control.

For series [6], the target named is CYP3A4 epoxygenase (Homo sapiens, UniProt P08684). The experiment in a line: CYP3A4 Supersome epoxygenase assay: EET synthesis from arachidonic acid, LC-ESI-MS/MS. To be noted: for inhibition of CYP3A4-mediated EETs synthesis: CYP3A4 Supersome, arachidonic acid 60 uM, 30 minutes, 37 C. As for the experimental part: Measurements are reported as percentage of control reactions performed with vehicle but no compound. A ^13C-EET recovery standard was used to control for recovery of EETs from extractions. […] EET measurements in these Supersome experiments are expressed as percentage of control reactions. Absolute EET measurements are determined by subtraction of regioisomer values in a baseline reaction lacking NADPH. Measurements were performed in triplicate and values are expressed as the mean±SD.
Sequence of CYP3A4 epoxygenase (P08684 whole entry): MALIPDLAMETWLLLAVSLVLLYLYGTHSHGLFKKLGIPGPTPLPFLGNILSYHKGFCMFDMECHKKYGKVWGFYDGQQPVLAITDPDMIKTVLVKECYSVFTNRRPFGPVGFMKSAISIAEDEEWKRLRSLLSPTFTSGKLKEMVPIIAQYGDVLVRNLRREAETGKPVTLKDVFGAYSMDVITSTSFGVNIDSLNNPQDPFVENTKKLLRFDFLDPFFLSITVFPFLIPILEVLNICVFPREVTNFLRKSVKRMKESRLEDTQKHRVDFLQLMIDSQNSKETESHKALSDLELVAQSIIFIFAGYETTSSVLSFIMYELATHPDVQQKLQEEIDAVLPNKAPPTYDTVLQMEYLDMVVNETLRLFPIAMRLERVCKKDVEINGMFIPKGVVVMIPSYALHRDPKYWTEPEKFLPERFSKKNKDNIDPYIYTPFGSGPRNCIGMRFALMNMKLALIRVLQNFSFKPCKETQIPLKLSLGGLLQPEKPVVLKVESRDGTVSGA
After the reaction, EETs were then extracted with 1 mL dichloromethane and reconstituted in methanol and analyzed by LC-ESI-MS/MS.

Series [7] concerns MDA-MB-231. The experiment in a line: MTT growth assay, MDA-MB-231 line. The settings on record: Homo sapiens, MDA-MB-231, 24 h, MTT assay at 24 hours, 10% FBS. It is filed as cell-based. As for the experimental part:
FIG. 30 illustrates HBB inhibits proliferation of MCF7 and MDA-MB-231 lines. Cells were plated in complete media in the presence of serum (10% FBS) and cultured at 37° C. with 5% CO2 and treated with HBB or DMSO vehicle. Growth was measured at 24 hours by MTT assay. Results were converted to percent growth of control and represented as mean±S.E. (n=8).

Series [8] deals with MCF7. The experiment in a line: NAC protection against HBB growth inhibition, MTT, MCF7. It is filed as cell-based. The settings on record: MCF7, 0.1 mM or 1 mM NAC, at IC50 of HBB. The protocol: FIG. 34 illustrates that N-acetylcysteine (NAC) protects MDA-MB-231 but not MCF7 against HBB-mediated growth inhibition. Cells were plated in complete media in the presence of serum (10% FBS) and cultured at 37° C. with 5% CO2 and treated with HBB in the presence of NAC or PBS control. Growth was then measured at 24 hours by MTT assay. Results were converted to percent growth of control and represented as mean±S.E. (n=8).

For series [9], the system named is MCF-7 xenograft. In words: MCF-7 xenograft in nude mice. The settings on record: metformin 40 mg/kg/day in drinking water vs vehicle. It is filed as in vivo. As for the experimental part:
FIG. 3A. MCF-7 xenograft with 3×10^6 cells in the 2nd mammary fat pad on day 0. HBB (4 mg/kg ip daily) (ν) or PBS (ρ) treatment began on day 1. * indicates P<0.05. FIG. 3B. MDAMB-231 xenograft with 1×10^6 cells in the 2nd mammary fat pad on day 0. HBB (4 mg/kg ip daily) (ν) or PBS (ρ) treatment began on day 1. N=20 mice per arm for each study; error bars are SEM.
MCF-7 cells were implanted in the mammary fat pad of 4-5 week mice and treatment was initiated when tumor size was ≥15 mm^3 by 2 sequential measurements with randomized assignment to the treatment arms.
FIG. 44A. Nude mice were inoculated with 3×10^6 MCF-7 cells and treated with vehicle (Δ) HBB at the MTD (4 mg/kg/day ip) (▪). (* indicates P<0.05). Error bars are SEM. […] The dose limiting toxicity was weight loss. At the MTD there was a well-tolerated 4% reduction of weight at 42 days (P<0.0001; data not shown). FIG. 44B. Nude mice were inoculated with 1×10^6MDA-MB-231 cells and treated with HBB at the MTD (4 mg/kg/day ip).

The subject of series [10] is CYP3A4. The experiment in a line: CYP3A4 protein level in MCF7 cells. It is filed as cell-based. The settings on record: MCF7, metformin 1 mM, 48 hours.
The target of series [11] is CYP3A4 nanodiscs (Homo sapiens, UniProt P08684). The experiment in a line: CYP3A4 nanodisc spin shift titration. The settings on record: no CPR; 156 uM and 1.1 mM metformin. It is filed as binding.
Sequence of CYP3A4 nanodiscs (P08684 whole entry): as above
The subject of series [12] is AA metabolism to EET in MCF-7 cells. The experiment in a line: EET regioisomer abundance in MCF-7 cells. It is filed as cell-based. The settings on record: 0.10 mM metformin, 6 h.

As for `CCCCCC1OC1CC=CCC=CCC=CCCCC(=O)O` (racemic) [14,15-EET, (±)-14,15-epoxyeicosatrienoic acid, reference compound], the “AMPK phosphorylation relative to control” value in [1] was “no statistical significant change of AMPK phosphorylation”. In addition, the “AMPK phosphorylation relative to EtOH control” value in [2] (MCF7, 1 uM 14,15-EET, 24 hours) was “decreased phosphorylation of AMPK”.

As to `CCCCCCNC(=N)NC(=N)NCc1ccccc1.Cl` [HBB-HCl, N1-hexyl-N5-benzyl biguanide hydrochloride], the IC50 in [3] (MTT assay at 24 hours, 10% FBS) was 20 µM; in [6] (IC50, inhibition of CYP3A4 epoxygenase), about 50 µM; in series [7] it was 20 µM. Also, the “rescue of MCF-7 growth by 14,15-EET in the presence of the biguanide” value (shortened to “rescue of MCF-7 growth by 14,15-EET”) in series [4] was “partially inhibited”. Moreover, the “concentration that inhibits STAT3 phosphorylation” value in series [5] was over 10 µM. The “fold more potent than metformin, inhibition of Stat3 phosphorylation” value in series [5] (vs metformin) is given as over 100 fold. In addition, the “concentration that activates AMPK phosphorylation” value in series [2] is over 10 µM. The “fold more potent than metformin, activation of AMPK phosphorylation” value in series [2] (vs metformin) is over 100 fold.

Consider `CCCCCCNC(=N)NC(=N)NCc1ncc[nH]1` [HIB 2-yl, N1-hexyl-N5-((1H-imidazol-2-yl)methyl)-biguanide], for which, in series [3] (MTT assay at 24 hours, 10% FBS), the half-inhibitory concentration (IC50) is over 150 µM.

As for `CCCCCCNC(=N)NC(=N)NCc1ccncc1` [HPB, N1-hexyl-N5-(pyridin-4-ylmethyl) biguanidine], in [3] (MTT assay at 24 hours, 10% FBS), the IC50 was found to be 40 µM.

As for `CC(=O)N[C@@H](CS)C(=O)O` [NAC, N-acetylcysteine], in series [8], the “protection by NAC against HBB-mediated growth inhibition” value is “failed to protect”.

Turning to `CCCCNC(=N)NC(=N)N` [buformin], the half-maximal inhibitory concentration (IC50) in [3] is over 10000 µM. For the same molecule, the “rescue of MCF-7 growth by 14,15-EET” value in series [4] is listed as “rescues the MCF-7 line; also recorded: partial rescue”. In addition, in [2], the “AMPK phosphorylation relative to control” value is “increased phosphorylation of AMPK”.

In the case of `CN(C)C(=N)N=C(N)N` [metformin, reference compound], the “tumor growth, MCF-7 xenograft” value in [9] was “inhibits the MCF-7 xenograft”; in [9] (listed as Metformin) it was “suppressed tumor growth”. Besides, in series [3] (MTT assay at 24 hours, 10% FBS), the half-maximal inhibitory concentration (IC50) was over 10000 µM. Also, the “rescue of MCF-7 growth by 14,15-EET” value in series [4] is reported as “rescues the MCF-7 line; also recorded: partial rescue”. For the same molecule, the “inhibition of CYP3A4-mediated EETs synthesis” value in series [6] is on record as “inhibit CYP3A4 epoxygenase; also recorded: significantly reduced EETs production”. Besides, the CYP3A4 protein level entry in [10] is “does not change CYP3A4 protein level”. For the same molecule, the “binding to CYP3A4 nanodiscs” value in series [11] is recorded as “binds to functional CYP3A4 epoxygenase nanodiscs”. The “abundance of EET regioisomers” value in [12] is “reduced abundance”.

As to `[H]/N=C(/N)N/C(=N/[H])NCCc1ccccc1` [phenformin, reference compound], the half-maximal inhibitory concentration (IC50) in series [3] (MTT assay at 24 hours, 10% FBS) was found to be 8000 µM. In series [4], the “rescue of MCF-7 growth by 14,15-EET” value is “rescues the MCF-7 line; also recorded: partial rescue”. Further, in series [6], the “inhibition of CYP3A4-mediated EETs synthesis” value was “inhibit CYP3A4 epoxygenase”. In addition, the “AMPK phosphorylation relative to control” value in [2] was “increased phosphorylation of AMPK”.

For orientation: IC50 means the concentration needed to halve the response being measured.
